Common to all, as to assay type: physicochemical
Data set [1] can be described thus: proton dissociation constants by pH-potentiometry. To be noted: for pK1 (H3L2+) / pK2 (H2L+) / pK3 (HL): Pro-SISC-Me; for pK1 (H3L2+) / pK2 (H2L+) / pK3 (HL) / pK1 (H2L+) / pK2 (HL): pH-pot.; for fraction present as H2L+ at pH 7.4 / fraction present as HL at pH 7.4: based on the pKa values; for fraction present as HL at pH 7.4: HL neutral (zwitter ionic for Pro-SISC-Me); for pK1 (H2L+) / pK2 (HL): SISC. As for the experimental part:
(§1) The pH-potentiometric measurements for the determination of the proton dissociation constants of the ligands and the overall stability constants of the metal complexes were carried out at 25.0 ± 0.1 °C in water or in 30% (v/v) DMSO/H2O as solvent and at an ionic strength of 0.10 M (KCl). The titrations were performed with carbonate-free KOH solution of known concentration (0.10 M). The concentrations of the base and the HCl were determined by pH-potentiometric titrations. An Orion 710A pH-meter equipped with a Metrohm combined electrode (type 6.0234.100), and a Metrohm 665 Dosimat burette were used for the titrations. […] The average water ionization constant pKw was 13.76 ± 0.05 (water) or 14.52 ± 0.05 (30% (v/v) DMSO/H2O). The pH-potentiometric titrations were performed in the pH range 2.0–12.5. The initial volume of the samples was 10.0 mL. The ligand concentration was 2 mM and metal ion-to-ligand ratios of 1:1–1:3 were used. The accepted fitting of the titration curves was always less than 0.01 mL. Argon was always passed over the solutions during the titrations. The exact concentration of the ligand stock solutions together with the proton dissociation constants were determined by pH-potentiometric titrations with the use of the computer program HYPERQUAD [44]. It was also utilized to establish the stoichiometry of the complexes and to calculate the stability constants (β(MpLqHr)). β(MpLqHr) is defined for the general equilibrium pM + qL + rH ⇋ MpLqHr as β(MpLqHr) = [MpLqHr]/[M]^p[L]^q[H]^r, where M denotes the metal ion and L the completely deprotonated ligand. In all calculations exclusively, titration data were used from experiments in which no precipitate was visible in the reaction mixture.

The nature of data set [2]: proton dissociation constants by UV-vis spectrophotometric titration. To be noted: for pK2 (H2L+) / pK3 (HL): Pro-SISC-Me; for pK1 (H2L+) / pK2 (HL): SISC. The method, then:
An Agilent Cary 8454 diode array spectrophotometer (Agilent Technologies, Santa Clara, CA, USA) was used to record the UV-vis spectra at an interval of 200–800 nm. The path length was 1 or 2 cm. Spectrophotometric titrations were performed in water or in 30% (v/v) DMSO/H2O on samples containing the ligands at 50 μM–1 mM concentration, in the pH range from 1.0 to 12.5 in the absence or in the presence of 1 or 0.5 or 0.33 equiv. metal ions. Ka values of the ligands and the UV-vis spectra of the individual species were calculated by the computer program PSEQUAD [45].

Data set [3] in a line: proton dissociation constants by 1H NMR titration. The method, then:
^1H NMR spectra recorded for SISC in 30% (v/v) d6-DMSO/H2O (Figure S3) clearly show two deprotonation steps and all the CH protons are sensitive to the changes of the pH. Similarly, the changes in the chemical shifts of the peaks of the aromatic CH and the CH=N protons indicate two steps in the ^1H NMR spectra of Pro-SISC-Me recorded in water (Figure 3a), thus two pKa values were calculated (pK2, pK3 in Table 1). However, this is only true for the major species identified as the E isomer (Figure 3b), while for the other isomer (Z, Figure 3c) only one pKa (7.55 ± 0.02) could be determined. The E and Z geometric isomers are the consequence of the C=N double bond. […] Based on the integrals of the CH=N peaks, the fraction of the E isomer is 86% at pH < 6.5, and it is decreased to 82% reaching pH 11.5; however, the appearance of further minor peaks at pH > 9.8 indicates the presence of other species in low fraction. The same picture is seen when the changes of the CH3 peaks are considered (Figure S4), and only the peak of the CH-COOH proton was sensitive to the first deprotonation process at pH < 3, which confirms that pK1 of Pro-SISC-Me applies to COOH.
The ^1H NMR studies for the ligands were carried out on a Bruker Ultrashield 500 Plus instrument (Billerica, MA, USA). DSS was used as an internal NMR standard and WATERGATE water suppression pulse scheme was used. Spectra were recorded in 10% (v/v) D2O/H2O or in 30% (v/v) DMSO-d6/H2O solvent mixtures in a concentration of 1 mM, respectively, at ionic strength of 0.10 M (KCl).

A short description of data set [4]: n-octanol/water distribution coefficient, shake-flask. To be noted: n-octanol/buffered aqueous solution, pH 7.4; n-octanol/H2O, pH 7.40, 25 °C, 0.10 M KCl; read-out: logD7.4. The method, then:
Distribution coefficients (D7.4) values were determined by the traditional shake-flask method in n-octanol/buffered aqueous solution at pH 7.40 (20 mM HEPES, 0.10 M KCl) at 25.0 ± 0.2 °C as described previously.

Data set [5] is described as follows: stability constants of Fe(III) complexes by pH-potentiometry. To be noted: 30% (v/v) DMSO/H2O; for pFe(III)* (−logΣ[Fe(III)i(OH)j]): calculated at pH 7.4, cFe = 1 μM, cligand = 10 μM. The method, then:
as §1

Data set [6] in a line: cyclic voltammetry of the iron complexes. To be noted: for cathodic peak potential of the iron complexes at pH 7.6: pH 7.6, 1:2 metal-to-ligand, E vs. Ag/AgCl/KCl (Figure S13b). From the text: Further differences were observed when the redox behavior of the iron complexes was monitored by cyclic voltammetry. In the case of SISC, only a cathodic peak could be observed in the pH range of the formation of the Fe(III) complexes (not shown), unlike for Pro-SISC-Me (Figure 8b), where quasi-reversible processes could be seen in a wide pH range (3.9–10.8). The cathodic peak measured at pH 7.6 was located at much lower potential than in the case of the SISC complex (−0.59 V vs. −0.38 V, Figure S13b). […] To reveal the coordination mode in the Fe(III)-Pro-SISC-Me complexes, crystallization experiments were performed and single crystals were obtained for the Na[Fe(III)(Pro-SISC-MeH−2)2](H2O)4 complex.
Cyclic voltammograms of the Cu(II) and Fe(III) complexes in 30% (v/v) DMSO/H2O containing 1 mM Cu(NO3)2 or 1 mM or 0.5 mM FeCl3 and 1 mM ligand were recorded at 25.0 ± 0.1 °C. Ionic strength was 0.10 M (TBAN). Measurements were performed on a conventional three-electrode system under nitrogen atmosphere using an Autolab PGSTAT 204 potentiostat/galvanostat monitored by Metrohm’s Nova software (Metrohm Autolab B.V., Utrecht, The Netherlands). Samples were purged with argon for 15 min before recording the cyclic voltammograms. Platinum electrodes were used as the working and auxiliary electrode and Ag/AgCl/3 M KCl as a reference electrode. The electrochemical system was calibrated with an aqueous solution of K3[Fe(CN)6] (E1/2 = +0.386 V vs. NHE).

Setting [7] is: Pro-SISC-Me, H2O, major species (E isomer).

Marks after values point to notes of the source that are not given here.

As for `Cc1cc(C=NNC(=N)N)c(O)c(CN2CCCC2C(=O)O)c1` (stereo not drawn) [Pro-SISC-Me], in data set [1] (30% DMSO/H2O), the “pK1 (H3L2+)” value is listed as 1.80 ± 0.08, the “pK2 (H2L+)” value was 7.08 ± 0.02 and the “pK3 (HL)” value worked out at 9.91 ± 0.02. Moreover, in data set [1] (H2O, 25 °C, I = 0.10 M (KCl)), the “pK1 (H3L2+)” value is reported as 2.52 ± 0.08, the “pK2 (H2L+)” value is given as 7.25 ± 0.06 and the “pK3 (HL)” value is 9.61 ± 0.05. For the same compound, in data set [1], the “fraction present as H2L+ at pH 7.4” value is 33% and the “fraction present as HL at pH 7.4” value came to 67%. In addition, in data set [2] (30% DMSO/H2O), the “pK2 (H2L+)” value is recorded as 7.07 ± 0.03 and the “pK3 (HL)” value worked out at 9.84 ± 0.03. For the same compound, in data set [2] (H2O), the “pK2 (H2L+)” value was determined as 7.30 ± 0.03 and the “pK3 (HL)” value stood at 9.67 ± 0.03. Besides, in data set [3] (setting [7]), the “pK1 (H3L2+)” value is reported as ≤2.5 ^c, the “pK2 (H2L+)” value is given as 7.25 ± 0.03 ^c and the “pK3 (HL)” value is 9.75 ± 0.03 ^c. Also, in data set [3] (water, only one pKa could be determined, read-out: pKa of the minor (Z) isomer), the pKa was found to be 7.55. Also, the logD in data set [4] was -0.88 ± 0.05. Moreover, in data set [5] (25 °C, I = 0.10 M (KCl)), the “logβ [Fe(III)L2H−1]” value was found to be 18.40 ± 0.07, the “logβ [Fe(III)L2H−2]−” value was found to be 8.64 ± 0.08, the “logβ [Fe(III)L2]+” value came out at 27.63 ± 0.05 and the “logβ [Fe(III)L]2+” value came to 15.25 ± 0.04. Also, in data set [5], the “pFe(III)* (−logΣ[Fe(III)i(OH)j])” value is on record as 10.0. For the same compound, in data set [6] (30% (v/v) DMSO/H2O, 1:2 metal-to-ligand ratio), the “E1/2 of the Fe(III)/Fe(II) redox couple of the iron complexes” value was −0.32 V vs. NHE. The “cathodic peak potential of the iron complexes at pH 7.6” value in data set [6] (30% (v/v) DMSO/H2O) is −0.59 V.

As to `N=C(N)NN=Cc1ccccc1O` [SISC, 2-(2-hydroxybenzylidene)hydrazinecarboximidamide], the “pK1 (H2L+)” value is listed as 7.62 ± 0.03 in data set [1] (30% DMSO/H2O); 7.64 ± 0.09 in data set [1] (H2O, 25 °C, I = 0.10 M (KCl)); 7.56 ± 0.03 in data set [2] (30% DMSO/H2O); 7.64 ± 0.03 in data set [2] (H2O); 7.68 ± 0.03 in data set [3] (SISC, 30% DMSO/H2O). Further, the “pK2 (HL)” value was found to be 10.63 ± 0.02 in data set [1] (30% DMSO/H2O); 9.96 ± 0.09 in data set [1] (H2O, 25 °C, I = 0.10 M (KCl)); 10.67 ± 0.03 in data set [2] (30% DMSO/H2O); 10.12 ± 0.03 in data set [2] (H2O); 10.72 ± 0.03 in data set [3] (SISC, 30% DMSO/H2O). Besides, the “fraction present as H2L+ at pH 7.4” value in data set [1] is recorded as 64%. The “fraction present as HL at pH 7.4” value in data set [1] is recorded as 36%. For the same compound, in data set [4], the logD amounted to 0.83. In addition, the “logβ [Fe(III)L2]+” value in data set [5] (25 °C, I = 0.10 M (KCl)) is reported as 27.46 ± 0.05. The “logβ [Fe(III)L]2+” value in data set [5] (25 °C, I = 0.10 M (KCl)) is reported as 14.96 ± 0.05. The “pFe(III)* (−logΣ[Fe(III)i(OH)j])” value in data set [5] is 7.9. Also, the “cathodic peak potential of the iron complex (only a cathodic peak)” value in data set [6] ([Fe(III)L2]+ complex) is recorded as −0.17 V vs. NHE. Also, in data set [6] (30% (v/v) DMSO/H2O), the “cathodic peak potential of the iron complexes at pH 7.6” value was −0.38 V.

Broadly, the pKa is the negative logarithm of the acid dissociation constant.

The values are drawn from PMC9000575, “Solution Equilibrium Studies on Salicylidene Aminoguanidine Schiff Base Metal Complexes: Impact of the Hybridization with L-Proline on Stability, Redox Activity and Cytotoxicity” (Molecules, 2022).
